Tests used:
[1] = tested on: brain samples from AD and Control Patients; assay: FeSO4 treatment of brain homogenates, P and D by RIA after HPLC; design: species or system human
Procedure: (§1) Tissue Samples: For brain samples from Alzheimer's patients and control patients, samples were treated as previously described (17). In brief, aliquots of homogenates were incubated with a final concentration of 30 mM (brain) or 10 mM (serum and CSF) FeSO4 at 37° C. for 2 hours. After 2 hours, samples were extracted and purified as described for the endogenous levels, and assayed by specific radioimmunoassay.
(§2) RIA using antibodies specific for each steroid (ICN Pharmaceuticals, Costa Mesa, Calif. Mesa) was used to measure P, progesterone and D levels. The data were analyzed using the IBM-PC RIA Data Reduction Program (version 4.1) from Jaffe and Associates (Silver Spring, Md.). Levels of β-amyloid species in AD and control brain samples were analyzed using 4G8 (Senetex PLC, Napa, Calif.), a monoclonal antibody to β-amyloid peptide that recognizes amino acids 17-24. Samples in 0.25 M sucrose buffer were run on 4-20% precast gradient gels (Novex, San Diego, Calif.). Samples were transferred to nitrocellulose membranes and incubated in primary antibody for 1 hour at room temperature at a dilution of 1:2000. Membranes were incubated in secondary antibody (1:1000) for 1-1.5 hours at room temperature and blots were visualized using ECL reagents (Amersham Pharmacia Biotech, Pisquataway, N.J.). Blots were exposed to X-OMAT film.

[2] = tested on: serum from AD and control patients; assay: FeSO4 treatment of serum, DHEA by RIA; design: species or system human
Procedure: as §1
Serum and CSF Levels of DHEA: Serum was obtained from 11 patients, 5 with AD and 6 age-matched controls. Serum samples were split and treated with and without 10 mM FeSO4. Serum and CSF samples were extracted as described for the brain tissue samples, and purified by HPLC. DHEA levels were measured by specific radioimmunoassay.

KG-1-C cells = assay: Alternative pathway D synthesis; type: cell-based, human; conditions: increasing concentrations of FeSO4, two hours
Procedure: (§3) Alternative Pathway: To determine the amount of D synthesized by the alternative pathway cells were treated as previously described (15). In brief, cells were washed and oligodendrocytes and astrocytes were incubated with increasing concentrations of FeSO4 in serum free media, with and without SU 10603 (10 mM); neurons were incubated in serum free media containing 5 mM P plus FeSO4, with and without 10 mM SU 10603. After two hours, cells and media were homogenized and extracted as described above. Extracts were run on C18 TLC plates (Whatman, Clifton, N.J.) with a mobile phase of 95% methanol (v/v); radiolabeled standards for P, progesterone, and D were run on each plate, and appropriate steroid fractions were collected for each sample. TLC fractions were extracted with 2 ml diethyl ether (Fluka, New York) and evaporated. TLC extracts were assayed by specific radioimmunoassay (RIA). In separate experiments, steroids eluted from TLC were further identified by HPLC, RIA and Gas Chromatography-Mass Spectrometry (data not shown).
as §2

MGM-1 cells [3] = assay: Alternative pathway D synthesis; type: cell-based, human; conditions: increasing concentrations of FeSO4, two hours
Procedure: as §3, §2

MGM-3 cells = assay: Alternative pathway D synthesis; type: cell-based, human; conditions: increasing concentrations of FeSO4, two hours
Procedure: as §3, §2

NHA cells [4] = assay: Alternative pathway D synthesis; type: cell-based, human; conditions: FeSO4, two hours, only seen at the highest dose
Procedure: as §3, §2

hNT-PF cells = assay: Alternative pathway D synthesis; type: cell-based, human
Procedure: as §3, §2

MGM-1 cells [5] = assay: ROS measurement by 2,7-DCF fluorescence; type: cell-based, human
Procedure: β-Amyloid Regulation of the Alternative Pathway: MGM-1 cells were plated on 96 well (˜5,000 cells/well, for ROS measurements) or 24 well (˜15,000 cells/well, for D measurements) plates (Corning Costar, Acton, Mass.). At the same time, 1 mg Ab (Ab(1-42), AnaSpec Inc., San Jose, Calif.) was dissolved in 0.5 ml serum-free media and incubated at 4 C. for aggregation. 24 hours later, cells were incubated in DMEM with 10% fetal bovine serum and […] and 10 mM Vitamin E (Sigma, St. Louis, Mo.). Control samples were incubated in DMEM with 10% FBS. Cells were incubated at 37 C. and 6% CO2 for at least 12 hours and processed for ROS generation (see below) or D synthesis as described above for the alternative experiments.
(§4) Treatment media was removed and the cells were washed with PBS. The fluorescent probe 2,7-dichlorofluorescin diacetate (2,7-DCF, Molecular Probes, Inc., Eugene, Oreg.) was used to measure levels of oxidative stress (48). Cells were incubated with […] 2,7-DCF, fluorescence was measured at 485 nm/535 nm using the Victor^2 Multilabel Counter (EG&G Wallac, Gaithersburg, Md.) and values of cellular fluorescence were obtained.

NHA cells [6] = assay: ROS measurement by 2,7-DCF fluorescence; type: cell-based, human; conditions: all concentrations of FeSO4 tested
Procedure: as §4

[7] = tested on: oligodendrocytes or astrocytes; assay: D production after addition of P; type: cell-based, human; conditions: addition of 5 μM P, data not shown
human brain cells = assay: D formation with SU 10603; type: cell-based; conditions: all human brain cells examined
Procedure: as §3

cell lines used = assay: P levels with SU 10603 alone; type: cell-based, human; conditions: any of the cell lines used, data not shown
KG-1-C and MGM-3 cells = assay: De novo steroid synthesis from 3H-mevalonactone; type: cell-based, human; conditions: 5 mM SU 10603, KG-1-C and MGM-3 cells, radiolabeled D
Procedure: De Novo Steroid Synthesis: All steroid synthesis experiments were performed with the cells at 60-80% confluency. In order to determine the ability of the cells to synthesize steroids de novo, cells were incubated for two hours at 37 C. and 6% CO2, with specific steroidogenic enzyme inhibitors as previously described (50). In brief, endogenous cholesterol synthesis was blocked by incubating cells with 20 mM Mevastatin in serum-free media (Sigma, St. Louis, Mo.) for 1 hour. 10 mM Trilostane and 5 mM SU 10603 were then added. After 30 minutes, […] ^3H-mevalonactone (33 Ci/mmol, DuPont NEN, Boston, Mass.) and 10 mM cold mevalonactone (Sigma, St. Louis, Mo.) were added. Thirty minutes later, media and cells were combined and homogenized on ice for 20 sec. Homogenates were extracted twice with 4 ml of ether:ethyl acetate (1:1, v/v, Fluka, New York, and EM Science, Gibbstown, N.J.) and evaporated. Extracts were reconstituted in 100% methanol and separated on a Beckman System Gold HPLC system, using a 126NM Solvent Module, 166NM Detector and a Beckman ultrasphere XL 3-mm Spherical 80 A pore column (Beckman, Fullerton, Calif.), eluted on a methanol gradient. Fractions were collected each minute and counted by liquid scintillation spectrometry (EG&G Wallac, Gaithersburg, Md.) to determine production of radiolabeled steroids. […]

MGM-1 cells [8] = assay: β-Amyloid regulation of the alternative pathway, D levels; type: cell-based, human
Procedure: as §3, with “In separate experiments, steroids eluted from TLC were further identified by HPLC, RIA and Gas Chromatography-Mass Spectrometry (data not shown).” left out
RIA using antibodies specific for each steroid (ICN Pharmaceuticals, Costa Mesa, Calif. Mesa) was used to measure P, progesterone and D levels. The data were analyzed using the IBM-PC RIA Data Reduction Program (version 4.1) from Jaffe and Associates (Silver Spring, Md.). Levels of β-amyloid species in AD and control brain samples were analyzed using 4G8 (Senetex PLC, Napa, Calif.), a monoclonal antibody to β-amyloid peptide that recognizes amino acids 17-24. […]

Human glioma cells = assay: Vitamin E treatment, ROS and D levels; type: cell-based; conditions: 10 mM Vitamin E, at least twelve hours, data not shown
Procedure: as §3, with “In separate experiments, steroids eluted from TLC were further identified by HPLC, RIA and Gas Chromatography-Mass Spectrometry (data not shown).” left out
Treatment media was removed and the cells were washed with PBS. […] Cells were incubated with […] 2,7-DCF, fluorescence was measured at 485 nm/535 nm using the Victor^2 Multilabel Counter (EG&G Wallac, Gaithersburg, Md.) and values of cellular fluorescence were obtained.
We hypothesized that high endogenous levels of ROS might be responsible for the de novo D formation in KG-1-C and MGM-3 cells. […] We measured ROS and D levels in these cells as described in the Experimental Procedures. […]

[9] = 30 mM FeSO4, frontal cortex, AD patients
[10] = 30 mM FeSO4, frontal cortex, control patients (C)
[11] = 30 mM FeSO4, hippocampus, AD patients
[12] = 30 mM FeSO4, hippocampus, control patients (C)
[13] = 30 mM FeSO4, hypothalamus, AD patients
[14] = 30 mM FeSO4, hypothalamus, control patients (C)

O=S(=O)([O-])[O-].[Fe+2] [FeSO4]
D (pg/mg protein) [1, 9]: 219.3 pg/mg protein
P (pg/mg protein) [1, 9]: 10485.5 pg/mg protein
D (pg/mg protein) [1, 10]: 70.0 pg/mg protein
P (pg/mg protein) [1, 10]: 7339.8 pg/mg protein
D (pg/mg protein) [1, 11]: 241.7 pg/mg protein
P (pg/mg protein) [1, 11]: 11584.0 pg/mg protein
D (pg/mg protein) [1, 12]: 128.3 pg/mg protein
P (pg/mg protein) [1, 12]: 8529.3 pg/mg protein
D (pg/mg protein) [1, 13]: 180.8 pg/mg protein
P (pg/mg protein) [1, 13]: 6640.3 pg/mg protein
D (pg/mg protein) [1, 14]: 61.4 pg/mg protein
P (pg/mg protein) [1, 14]: 7707.2 pg/mg protein
effect on D levels ([2]; 10 mM FeSO4, AD serum): little effect
increase in D levels ([2]; 10 mM FeSO4, control serum): 1.5-3 fold
effect on D levels (KG-1-C cells): did not significantly affect
D synthesis via the alternative pathway (MGM-1 cells [3]): has the ability to make D via the alternative pathway
effect on D levels (MGM-3 cells): did not significantly affect
effect on D formation (NHA cells [4]): significant effect
effect on D levels (hNT-PF cells; increasing concentrations of FeSO4 plus 5 mM P): not affected
ROS levels above untreated cells (MGM-1 cells [5]; all concentrations of FeSO4 tested, MGM-1): significant increase
ROS levels above untreated cells (NHA cells [6]): significant increase

CC(=O)[C@H]1CC[C@H]2[C@@H]3CC=C4C[C@@H](O)CC[C@]4(C)[C@H]3CC[C@]12C [P, pregnenolone]
D production [7]: did not result in increased D production

O=C1c2cc(Cl)ccc2CCC1c1cccnc1 (centres unmarked) [SU 10603]
effect on D levels (hNT-PF cells; SU 10603 treatment): not affected
inhibition of D formation (human brain cells): did not inhibit
effect on P levels (cell lines used): no effect
blocking endogenous D production (KG-1-C and MGM-3 cells): not effective

Aβ: β-amyloid peptide Ab(1-42), AnaSpec Inc., aggregated; a component of Alzheimer's disease plaques
2,7-DCF fluorescence (ROS) versus control levels (MGM-1 cells [5]; 50 mM Aβ, MGM-1, p<0.01): significant increase
D levels versus control (MGM-1 cells [8]; 50 mM Aβ, MGM-1, p<0.01): increased D levels significantly over control

Vitamin E
effect on Aβ-induced increase in ROS (MGM-1 cells [5]; 10 mM Vitamin E with 50 mM Aβ, MGM-1, p=0.054): partially blocked
effect on Aβ-induced increase in D levels (MGM-1 cells [8]; 10 mM Vitamin E with 50 mM Aβ, MGM-1, p<0.05 versus Ab): blocked
D levels compared to untreated cells (Human glioma cells): lowered
ROS levels compared to untreated cells (Human glioma cells): lowered

From patent publication US20030213746A1, “Neurosteroids as markers for alzheimer's disease” (priority 2003, published 2003)
